Where two headings read alike, the source gives them in different places.

One compound from publication PMC11284787, “Ligand-Directed Labeling of the Adenosine A1 Receptor in Living Cells” (Journal of Medicinal Chemistry, 2024) can be followed below.

Data set [1] is described as follows: Fluorescence correlation spectroscopy in solution (HBSS). In kind it is physicochemical. How it is done:
The suitability of probe 11 for use with FCS was initially tested by recording 10 × 10 s trace reads in solution (100 nM in HBSS) (Figure S4). […] A 488 nm […] laser was used to excite SNAP-AF488 and the emission […] The pinhole diameter (1 Airy Unit; 1.1 μm optical slice), laser power and gain was kept constant in all the experiments. Images were acquired as 16-bit depth, 1024x1024 pixel resolution with a line averaging of 8 (or 2) and a pixel dwell time 4.12 µs (set to 5). Images were either processed in Zeiss ZEN 2 (blue edition) or FIJI (ImageJ) version 2.0.0 software, and linear adjustments to the brightness and contrast have been applied equally across all the images. To obtain membrane intensity values, regions of interest were drawn by hand around regions of cell membranes in FIJI (ImageJ)10 version 2.0.0 software. Fluorescence Correlation Spectroscopy. […] After that time, cells were washed 3x with warm HBSS over the course of 20 min, followed by the addition of 300 µL HBSS, left to cool to 24 OC and used in Fluorescence Correlation Spectroscopy (FCS) studies. […] For solution-based reads 10 x 10s trace measurements were taken within 200 µL sample with the confocal observation volume placed 200 µm above the coverslip. For apical membrane reads, 3 x 30s trace measurements at ~0.5 kW/cm2 laser power were taken on the apical membrane with its position determined as the peak of a point intensity S9 page 10: Z-scan utilising an argon 488 nm laser excitation, at ~0.5kW/cm2 laser power, detecting […] The placement was lowered by 0.2 µm to account for the optical chromatic offset between the 488 nm and 633 nm detection previously determined for our microscope set-up. Autocorrelation curves (AC) were constructed from fluorescence fluctuation traces and analysed within Zen Black (2012) software. […] Fluorescence fluctuation traces were reanalysed with Photon Counting Histogram analysis to determine the average molecular brightness of detected species. […]

In data set [2] the target is T1, NL-rA1AR (Rattus norvegicus, UniProt P25099).
T1 construct: expressed in transfected cells
T1 sequence (P25099 1-326): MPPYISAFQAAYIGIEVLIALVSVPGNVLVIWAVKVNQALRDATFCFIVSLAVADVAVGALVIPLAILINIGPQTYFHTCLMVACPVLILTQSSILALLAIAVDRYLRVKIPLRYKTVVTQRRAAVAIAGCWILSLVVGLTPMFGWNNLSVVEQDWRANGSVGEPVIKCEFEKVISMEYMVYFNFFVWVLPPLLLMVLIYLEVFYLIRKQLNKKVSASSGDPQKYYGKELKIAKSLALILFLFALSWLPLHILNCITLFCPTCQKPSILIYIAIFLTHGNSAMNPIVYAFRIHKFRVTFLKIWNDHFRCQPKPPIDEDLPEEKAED
Put plainly: NanoBRET saturation ligand-binding assay, NL-rA1AR. The protocol: The ligand-binding properties of the newly synthesized probes were assessed in a series of pharmacological assays. Initially, a NanoBRET[47],[48] saturation binding experiment was used to evaluate the binding affinity of ligand-directed probes functionally labeled with the SulfoCy5 fluorophore (11) to the NanoLuc(NL)-tagged[49] hA1AR expressed in HEK293T cells.
NanoBRET binding assay. All NanoBRET experiments were performed in white flat […]
37 °C for kinetic binding experiments. Emissions were read at 420 nm (80 nm bandpass; […]
the SulfoCy5-labelled probe. […]
nm emission by the 420 nm emission. The term “raw BRET ratio” refers to the unprocessed data as no background ratio has been subtracted. In all NanoBRET binding […]
competitive antagonist selective for the adenosine receptor under investigation […]
MRS1220 for the A3AR). HEK293T cells stably/transiently expressing Nluc-AR were […]
were incubated for 1 h at 37 °C. […]
NanoBRET saturation binding assay. Total and nonspecific saturation binding curves were fit simultaneously using the following equation: […]
A general note: Bioluminescence resonance energy transfer reports proximity on the nanometre scale.

For the compound `CCCCn1c(=O)c2[nH]c(C34CCC(C(=O)NCCNC(=O)CCNC(=O)c5ccc(OC(=O)CCCCC[N+]6=C(/C=C/C=C/C=C7/N(C)c8ccc(S(=O)(=O)O)cc8C7(C)C)C(C)(C)c7cc(S(=O)(=O)[O-])ccc76)c(F)c5)(CC3)CC4)nc2n(CCCC)c1=O` [Compound 11, 1-(6-(4-((3-((2-(4-(1,3-Dibutyl-2,6-dioxo-2,3,6,7-tetrahydro-1H-purin-8-yl)bicyclo[2.2.2]octane-1-carboxamido)ethyl)amino)-3-oxopropyl)carbamoyl)-2-fluorophenoxy)-6-oxohexyl)-3,3-dimethyl-2-((1E,3E)-5-((E)-1,3,3-trimethyl-5-sulfoindolin-2-ylidene)penta-1,3-dien-1-yl)-3H-indol-1-ium-5-sulfonate], the “dwell time in solution (FCS, 3D diffusion model)” value in data set [1] (100 nM in HBSS) is 117.6 ± 17.6 μs. Further, the “diffusion coefficient, D, in solution” value in data set [1] (100 nM in HBSS, calibrated with Cy5) turned out to be 142.7 ± 17.3 μm^2/s. For the same compound, the “PCH analysis, state in solution” value in data set [1] (1-component fit, HBSS) is on record as “single species with no aggregation”. The Kd in data set [2] (HEK293T cells stably expressing rat NanoLuc-A1AR, mean ± SEM, read-out: affinity values pKD, NL-rA1AR (converted)) is 9.12 nM; in data set [2] (supplementary CSV, read-out: AFFINITY (A1AR_rat) pKD (converted)), 10.2 nM.
